Reference: patent US20230241031A1, “Composition, Comprising Rip Kinase Inhibitor, For Preventing Hair Loss Or Promoting Hair Regrowth” (Epi Biotech Co., Ltd., priority 2019, published 2023)

How the values were obtained:
[1] = test system: mouse vibrissae; assay: Hair growth induction in organ-cultured mouse vibrissae; assay type: cell-based, mouse (C57BL/6 female mice); conditions: vibrissae cultured 3 days at 37° C.; for degree of hair growth induction (effect of promoting hair growth): compared to inactive type necrostatin-1, FIG. 1; for degree of hair growth induction: siRNA treatment, vs control siRNA, FIG. 6; for degree of hair growth induction (efficacy of promoting hair growth): vs untreated group
Protocol: Specifically, the vibrissae of C57BL/6 female mice were trimmed and organ cultured. […] The vibrissae of the three treatment groups were treated with 10 μM, respectively, and then cultured for 3 days in an incubator at 37° C.
(§1) Specifically, the vibrissae of C57BL/6 female mice were trimmed and organ cultured. The trimmed vibrissae were cultured in a 48-well plate so as to become one per well, and divided into a total of 3 groups: the untreated group (control group), the group treated with 1 μM sibiriline, and the group treated with 10 μM sibiriline. The vibrissae were treated, respectively, and then cultured for 3 days in an incubator at 37° C.
as §1, with “GSK963,” for “sibiriline,”, “GSK963.” for “sibiriline.”
as §1, with “of C57/BL6” for “of C57BL/6”, “of 4” for “of 3”, “μM GSK2982772,” for “μM sibiriline, and”, “μM GSK2982772, and the group treated with 50 μM GSK2982772.” for “μM sibiriline.”
as §1, with “the” for “the untreated”, “treated with RIPK1 siRNA,” for “(control group),”, “RIPK3 siRNA,” for “1 μM sibiriline,”, “control siRNA (control group) in Table 1.” for “10 μM sibiriline.”

[2] = test system: C3H/HeN mice; assay: Hair regrowth on the back of depilated mice after topical application; assay type: in vivo, mouse (C3H/HeN, male); conditions: 100 μl applied to the back, 13 days, FIG. 2
Text: The hairs of ten 6-week-old male C3H/HeN mice were shaved short using a depilatory machine, and the remaining hairs were completely removed using a depilatory agent, and then they were stabilized for one day before use in the experiment.
Mice were divided into 5 mice per group under the following conditions to conduct an experiment.
After 13 days, the hairs on the back of the mouse in which hair regrowth occurred were shaved using a razor, and then the hairs were obtained, and the weight was measured.

CN1C(=O)NC(Cc2c[nH]c3c(Cl)cccc23)C1=O (stereo not shown) [necrostatin-1s]
degree of hair growth induction (effect of promoting hair growth) ([1]; 10 μM): excellent effect of promoting hair growth compared to the inactive type necrostatin-1
effect of inducing hair growth (appearance of hair growth and weight of the hair) ([2]; 100 μM, vs 2% minoxidil group): more excellent effect of inducing hair growth compared to the group administered with commercially available minoxidil
hair growth effect (appearance of hair growth and weight of the hair) ([2]; group administered with necrostatin-1s (10 μM or 100 μM), vs untreated control group): excellent hair growth effect compared to the untreated control group

RIPK3 siRNA: siRNA of SEQ ID NO: 3 and 4 capable of inhibiting RIP kinase expression (chain 1 CGAGUGAUGUCUACAGCUU; chain 2 AAGCUGUAGACAUCACUCG; listed as RNA, chemistry not given here)
degree of hair growth induction [1]: hair growth was promoted

RIPK1 siRNA: siRNA of SEQ ID NO: 1 and 2 capable of inhibiting RIP kinase expression (chain 1 GUCCUUGUGUUACCACAGA; chain 2 UCUGUGGUAACACAAGGAC; listed as RNA, chemistry not given here)
degree of hair growth induction [1]: hair growth was promoted

Oc1ccc(-c2cc3cccnc3[nH]2)cc1 [sibiriline]
degree of hair growth induction (efficacy of promoting hair growth) ([1]; 1 μM): excellent efficacy of promoting hair growth
degree of hair growth induction (efficacy of promoting hair growth) ([1]; 10 μM): excellent efficacy of promoting hair growth

CN1C(=O)C(Cc2c[nH]c3ccccc23)NC1=S (stereo not shown) [necrostatin-1]
degree of hair growth induction (effect of promoting hair growth) ([1]; 10 μM): excellent effect of promoting hair growth compared to the inactive type necrostatin-1

CC(C)(C)C(=O)N1N=CCC1c1ccccc1 (stereo not shown) [GSK963]
degree of hair growth induction (efficacy of promoting hair growth) ([1]; 1 μM): excellent efficacy of promoting hair growth
degree of hair growth induction (efficacy of promoting hair growth) ([1]; 10 μM): excellent efficacy of promoting hair growth

CN1C(=O)[C@@H](NC(=O)c2nnc(Cc3ccccc3)[nH]2)COc2ccccc21 [GSK2982772]
degree of hair growth induction (efficacy of promoting hair growth) ([1]; 1 μM): excellent efficacy of promoting hair growth
degree of hair growth induction (efficacy of promoting hair growth) ([1]; 10 μM): excellent efficacy of promoting hair growth
degree of hair growth induction (efficacy of promoting hair growth) ([1]; 50 μM): excellent efficacy of promoting hair growth
